According to ChEMBL document CHEMBL3886367, “Substituted pyridine compound” (2015):

These compounds were tested against T1, Cholesteryl ester transfer protein (Homo sapiens, UniProt P11597) (assay: CETP Inhibition Assay: A recombinant human CETP protein (manufactured by Roar Biomedical Inc.; 4.5 ng), the acceptor lipoprotein described in (2) above (32.5 ug) and 5,5'-dithio-bis-(2-nitrobenzoic acid) (7 mM, 15 ul) were taken in a 96 well plate and the total amount of the mixture was adjusted to 48.5 ul with the PBS solution. The test compound [DMSO solution (concentration: 0.15, 0.5, 1.5, 5, 15, 50, 150 and 500 uM; 1.5 ul] was added to each well and the mixture was incubated in a thermostatic bath at 37° C. for 60 minutes. The reconstituted HDL (50 ul) described in (1) above was added to each well and the mixture was reacted in a thermostatic bath at 37° C. for 60 minutes. The 96 well plate was moved onto ice and a precipitation reagent [a mixed solution of magnesium chloride (60 mM) and 0.1% dextran sulfate [1/1 (v/v)]; 15 ul] was added to each well, and then the mixture was allowed to stand on ice for 15 minutes.).
T1 sequence (P11597 whole entry): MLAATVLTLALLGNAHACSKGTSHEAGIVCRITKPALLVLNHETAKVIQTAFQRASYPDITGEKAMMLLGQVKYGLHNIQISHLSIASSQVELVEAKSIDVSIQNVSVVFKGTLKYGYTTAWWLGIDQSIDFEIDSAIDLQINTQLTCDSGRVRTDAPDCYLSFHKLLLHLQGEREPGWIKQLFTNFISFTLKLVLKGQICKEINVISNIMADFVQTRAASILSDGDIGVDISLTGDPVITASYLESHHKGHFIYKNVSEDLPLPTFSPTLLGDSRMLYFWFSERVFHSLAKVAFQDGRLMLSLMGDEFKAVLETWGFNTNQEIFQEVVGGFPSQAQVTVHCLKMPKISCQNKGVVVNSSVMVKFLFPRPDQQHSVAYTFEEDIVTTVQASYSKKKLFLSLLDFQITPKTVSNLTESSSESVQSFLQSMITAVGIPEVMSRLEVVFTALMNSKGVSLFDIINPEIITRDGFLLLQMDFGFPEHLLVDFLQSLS

| IC50 | Compound |
| --- | --- |
| 37 nM | CC1(C)Cc2nc(C3CCN(c4ncc(OCCO)cn4)CC3)c([C@@H](F)c3ccc(C(F)(F)F)cc3)c(C3CCC(F)(F)CC3)c2[C@@H](O)C1 |
| 49 nM | CC1(C)Cc2nc(C3CCN(c4ncc(N5CCS(=O)(=O)CC5)cn4)CC3)c([C@@H](F)c3ccc(C(F)(F)F)cc3)c(C3CCC(F)(F)CC3)c2[C@@H](O)C1 |
| 92 nM | CCOc1cnc(N2CCC(c3nc4c(c(C5CCC(F)(F)CC5)c3[C@@H](F)c3ccc(C(F)(F)F)cc3)[C@@H](O)CC(C)(C)C4)CC2)nc1 (single isomer, unassigned) |
| 150 nM | CC1(C)Cc2nc(C3CCN(c4ncc(Br)cn4)CC3)c([C@@H](F)c3ccc(C(F)(F)F)cc3)c(C3CCC(F)(F)CC3)c2[C@@H](O)C1 (single isomer, unassigned) |
